According to patent US8921319B2, “Serine protease inhibitors” (The Medicines Company (Leipzig) GmbH, priority 2010, dated 2014):
pKi: −log10 of the molar value. Where two headings read alike, the source gives them in different places.

What was measured:
thrombin = thrombin (Bos taurus (Bovine), UniProt P00735); assay: Enzyme assay, inhibition constant for thrombin (chromogenic substrate, Dixon method); format: biochemical, Rind; conditions: substrate CH3SO2-D-Cha-Gly-Arg-pNA, mean of at least two measurements
Experimental: (§1) Reactions were started by addition of 50 μl of enzyme solution.
(§2) The Ki values are the mean of at least two measurements. Enzymes and substrates used are set out in Table 1 below: […]

plasma kallikrein = plasma kallikrein (Homo sapiens (Human), UniProt P03952); assay: Enzyme assay, inhibition constant for human plasma kallikrein (chromogenic substrate, Dixon method); format: biochemical; conditions: 25° C., Tris HCl buffer pH 8.0, substrate H-D-Pro-Phe-Arg-pNA, mean of at least two measurements; read-out: Ki PK
plasma kallikrein, sequence (P03952 391-638): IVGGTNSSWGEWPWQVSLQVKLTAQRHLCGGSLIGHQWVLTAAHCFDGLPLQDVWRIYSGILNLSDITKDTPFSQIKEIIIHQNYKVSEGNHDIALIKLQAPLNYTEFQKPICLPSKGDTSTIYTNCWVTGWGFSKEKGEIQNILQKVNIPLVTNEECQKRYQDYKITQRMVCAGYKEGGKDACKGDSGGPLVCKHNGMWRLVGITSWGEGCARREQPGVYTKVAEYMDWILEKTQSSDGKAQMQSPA
plasma kallikrein, sequence (P03952 20-390 partner): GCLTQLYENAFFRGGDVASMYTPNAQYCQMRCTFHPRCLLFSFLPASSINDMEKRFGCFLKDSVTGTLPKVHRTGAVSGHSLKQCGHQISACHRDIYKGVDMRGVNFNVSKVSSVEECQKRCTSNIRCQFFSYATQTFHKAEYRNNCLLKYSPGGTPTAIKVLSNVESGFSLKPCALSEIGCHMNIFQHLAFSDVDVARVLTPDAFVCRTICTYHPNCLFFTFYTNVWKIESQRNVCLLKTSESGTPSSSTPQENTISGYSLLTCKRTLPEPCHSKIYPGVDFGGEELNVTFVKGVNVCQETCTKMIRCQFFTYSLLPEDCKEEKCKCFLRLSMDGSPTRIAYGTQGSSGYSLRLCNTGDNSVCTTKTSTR
Experimental: as §1, §2

Factor Xa (human) = Factor Xa (human) (Homo sapiens (Human), UniProt P00742); assay: Enzyme assay, inhibition constant for factor Xa (chromogenic substrate, Dixon method); format: biochemical; conditions: read-out: Ki FXa
Factor Xa (human), sequence (P00742 235-488): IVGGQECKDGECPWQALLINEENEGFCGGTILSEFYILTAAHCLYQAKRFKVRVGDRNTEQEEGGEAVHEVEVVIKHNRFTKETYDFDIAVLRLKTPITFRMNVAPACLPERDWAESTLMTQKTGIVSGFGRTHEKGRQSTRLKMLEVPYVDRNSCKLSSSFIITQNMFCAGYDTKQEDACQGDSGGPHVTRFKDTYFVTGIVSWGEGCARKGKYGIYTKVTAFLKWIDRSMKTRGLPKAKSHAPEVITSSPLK
Factor Xa (human), sequence (P00742 41-179 partner): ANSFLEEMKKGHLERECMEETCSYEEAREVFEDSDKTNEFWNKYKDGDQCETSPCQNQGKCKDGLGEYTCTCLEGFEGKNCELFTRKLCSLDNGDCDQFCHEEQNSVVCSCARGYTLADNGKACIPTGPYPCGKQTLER
Experimental: as §1, §2

plasmin [1] = target: T1, plasmin (Homo sapiens (Human), UniProt P00747); assay: Enzyme assay, inhibition constant for human plasmin (chromogenic substrate, Dixon method); format: biochemical; conditions: 25° C., Tris HCl buffer pH 8.0, substrate Tos-Gly-Pro-Lys-pNA, mean of at least two measurements; read-out: Ki h Plasmin
Experimental: as §1, §2
Target sequence in this assay (P00747 581-810): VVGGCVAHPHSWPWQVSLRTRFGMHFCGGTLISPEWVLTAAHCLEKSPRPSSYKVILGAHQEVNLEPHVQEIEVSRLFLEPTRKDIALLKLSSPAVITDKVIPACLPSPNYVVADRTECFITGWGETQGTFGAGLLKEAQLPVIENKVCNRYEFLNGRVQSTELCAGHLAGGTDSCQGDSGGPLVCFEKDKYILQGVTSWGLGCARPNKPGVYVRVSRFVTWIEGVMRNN
Target sequence in this assay (P00747 97-580 partner): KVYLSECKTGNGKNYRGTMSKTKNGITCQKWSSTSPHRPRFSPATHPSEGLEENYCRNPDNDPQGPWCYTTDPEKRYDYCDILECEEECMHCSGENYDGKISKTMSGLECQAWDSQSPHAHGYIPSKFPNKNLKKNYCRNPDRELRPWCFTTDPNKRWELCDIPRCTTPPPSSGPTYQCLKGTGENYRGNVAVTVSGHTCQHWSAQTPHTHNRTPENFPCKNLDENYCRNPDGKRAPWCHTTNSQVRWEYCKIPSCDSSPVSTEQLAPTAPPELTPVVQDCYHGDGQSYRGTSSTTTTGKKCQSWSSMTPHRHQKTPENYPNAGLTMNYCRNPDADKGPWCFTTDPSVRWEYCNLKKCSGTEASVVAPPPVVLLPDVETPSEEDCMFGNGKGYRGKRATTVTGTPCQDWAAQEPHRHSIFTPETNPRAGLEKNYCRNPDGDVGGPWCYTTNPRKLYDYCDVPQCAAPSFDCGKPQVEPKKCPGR

trypsin = conditions: background; cited from earlier work
[2] = cited from earlier work
plasmin [3] = target: T1, plasmin; conditions: background, literature; read-out: Ki / inhibition constant for plasmin; cited from earlier work
Target sequence in this assay (P00747 581-810, species assumed): as the sequence (P00747 581-810) above
Target sequence in this assay (P00747 97-580 partner, species assumed): as the sequence (P00747 97-580 partner) above

[4] = substrate CH3OCO-D-Cha-Gly-Arg-pNA, mean of at least two measurements

## N=C(N)c1ccc(CNC(=O)[C@@H]2Cc3ccc(cc3)CNC(=O)CN3CCN(CC3)CC(=O)NCc3ccc(cc3)C[C@@H](NS(=O)(=O)Cc3ccccc3)C(=O)N2)cc1 [Inhibitor 9]
thrombin
  pKi: 5.67
Plasma kallikrein
  pKi: 6.31
Factor Xa (human); [4]
  pKi: 5.46

## N=C(N)c1ccc(CNC(=O)[C@@H]2Cc3cn(nn3)Cc3cccc(c3)Cn3cc(nn3)C[C@@H](NS(=O)(=O)Cc3ccccc3)C(=O)N2)cc1 [Inhibitor 1]
thrombin
  pKi: 5.37
Plasma kallikrein
  pKi: 8.62
Plasmin [1]
  pKi: 9.11
Factor Xa (human); [4]
  pKi: 6.69

## N=C(N)c1ccc(CNC(=O)[C@@H]2Cc3cccc(c3)CNC(=O)Cc3ccccc3CC(=O)NCc3cccc(c3)C[C@@H](NS(=O)(=O)Cc3ccccc3)C(=O)N2)cc1 [Inhibitor 7]
thrombin
  pKi: 6.24
Plasma kallikrein
  pKi: 8.05
Factor Xa (human); [4]
  pKi: 6.99

## N=C(N)c1ccc(CNC(=O)[C@@H]2Cc3ccc(cc3)NC(=O)CN3CCN(CC3)CC(=O)Nc3ccc(cc3)C[C@@H](NS(=O)(=O)Cc3ccccc3)C(=O)N2)cc1 [Inhibitor 15]
thrombin
  pKi: 5.08
Plasma kallikrein
  pKi: 6.49
Plasmin [1]
  pKi: 9.17
Factor Xa (human); [4]
  pKi: < 5.00

## N=C(N)c1ccc(CNC(=O)[C@@H]2Cc3cccc(c3)CNC(=O)Cc3cccc(c3)CC(=O)NCc3cccc(c3)C[C@@H](NS(=O)(=O)Cc3ccccc3)C(=O)N2)cc1 [Inhibitor 5]
thrombin
  pKi: 7.57
Plasma kallikrein
  pKi: 7.76
Factor Xa (human); [4]
  pKi: 7.38

## N=C(N)c1ccc(CNC(=O)[C@@H]2CCCCNC(=O)c3cccc(c3)C(=O)NCCCC[C@@H](NS(=O)(=O)Cc3ccccc3)C(=O)N2)cc1 [Inhibitor 12]
thrombin
  pKi: 6.73
Plasma kallikrein
  pKi: 7.74
Plasmin [1]
  pKi: 7.42
Factor Xa (human); [4]
  pKi: 6.42

## N=C(N)c1ccc(CNC(=O)[C@@H]2Cc3cccc(c3)CNC(=O)Cc3ccc(cc3)CC(=O)NCc3cccc(c3)C[C@@H](NS(=O)(=O)Cc3ccccc3)C(=O)N2)cc1 [Inhibitor 6]
thrombin
  pKi: 7.34
Plasma kallikrein
  pKi: 6.87
Factor Xa (human)
  pKi: 6.82

## N=C(N)c1ccc(CNC(=O)[C@@H]2CCC(=O)NCc3cccc(c3)CNC(=O)CC[C@@H](NS(=O)(=O)Cc3ccccc3)C(=O)N2)cc1 [Inhibitor 13]
thrombin
  pKi: 5.69
Plasma kallikrein
  pKi: 7.60
Factor Xa (human); [4]
  pKi: 5.46

## N=C(N)c1ccc(CNC(=O)[C@@H]2Cc3ccc(cc3)OCCCCOc3ccc(cc3)C[C@@H](NS(=O)(=O)Cc3ccccc3)C(=O)N2)cc1 [Inhibitor 11]
thrombin
  pKi: 6.29
Plasma kallikrein
  pKi: 7.47
Plasmin [1]
  pKi: 8.72
Factor Xa (human); [4]
  pKi: 5.70

## N=C(N)c1ccc(CNC(=O)[C@@H]2Cc3ccc(cc3)CNC(=O)Cc3cccc(c3)CC(=O)NCc3ccc(cc3)C[C@@H](NS(=O)(=O)Cc3ccccc3)C(=O)N2)cc1 [Inhibitor 3]
thrombin
  pKi: 5.52
Plasma kallikrein
  pKi: 6.26
Factor Xa (human); [4]
  pKi: 5.24

## N=C(N)c1ccc(CNC(=O)[C@@H]2Cc3cn(nn3)Cc3ccc(cc3)Cn3cc(nn3)C[C@@H](NS(=O)(=O)Cc3ccccc3)C(=O)N2)cc1 [Inhibitor 14]
thrombin
  pKi: 6.66
Plasma kallikrein
  pKi: 7.92
Plasmin [1]
  pKi: 8.27
Factor Xa (human); [4]
  pKi: 6.22

## aprotinin
trypsin
  pKi: 10.00
[2]; first administration
  risk of anaphylactic shock: < 0.1%
[2]; repeated administration within 200 days
  risk of anaphylactic shock: 4-5%

## N=C(N)c1ccc(CNC(=O)[C@@H]2Cc3ccc(cc3)CNC(=O)Cc3ccc(cc3)CC(=O)NCc3ccc(cc3)C[C@@H](NS(=O)(=O)Cc3ccccc3)C(=O)N2)cc1 [Inhibitor 4]
thrombin
  pKi: 5.19
Plasma kallikrein
  pKi: 6.06
Factor Xa (human); [4]
  pKi: 5.03

## N=C(N)c1ccc(CNC(=O)[C@@H]2CCN2C(=O)[C@H](NCC(=O)O)C2CCCCC2)cc1 [melagatran]
Plasmin [3]
  pKi: 6.15

## N=C(N)c1ccc(CNC(=O)[C@@H]2Cc3cn(nn3)Cc3cccc(n3)Cn3cc(nn3)C[C@@H](NS(=O)(=O)Cc3ccccc3)C(=O)N2)cc1 [Inhibitor 2]
thrombin
  pKi: 5.34
Plasma kallikrein
  pKi: 8.00
Plasmin [1]
  pKi: 8.66
Factor Xa (human); [4]
  pKi: 5.73

## N=C(N)c1ccc(CNC(=O)[C@@H]2Cc3cccc(c3)CNC(=O)CN3CCN(CC3)CC(=O)NCc3cccc(c3)C[C@@H](NS(=O)(=O)Cc3ccccc3)C(=O)N2)cc1 [Inhibitor 8]
thrombin
  pKi: 8.04
Plasma kallikrein
  pKi: 7.50
Factor Xa (human); [4]
  pKi: 7.58
